# Assay results: patent US20110311651A1, “CA[…] THE TREATMENT OF OCULAR CANCER” (priority 2008, published 2011)
# “Also recorded” adds a separate entry of the source.
# Assays:
# Y79 cells [1] = test: Cytotoxicity assay for dose response in 384-well plates (Alamar Blue), Y79; type: cell-based, human
# Experimental: (§1) Cytotoxicity assay for dose response in 384-well microtiter plates. Dose response studies were performed in 384-well microtiter plates (#3712, Corning Inc., Corning, N.Y.) according to the following protocol: cells were added in 45 μL medium to the screening plates using Flexdrop. After 72 h incubation was added 5 μL Alamar Blue using Flexdrop. The cells were then incubated for another 24 h, and the fluorescence intensity was read on LEADseeker™ Multimodality Imaging System as previously described. To calculate the IC50 for each compound toward each cell line, the dose response was assessed in duplicate and using 12 point doubling dilutions with 100 μM compound concentration as the upper limit. The dose response curve for each set of data was fitted separately, and the two IC50 values obtained were averaged.
# Compared potency of the cardenolide ouabain with known agents in cell models of retinoblastoma. The potency of a representative of the cardenolide scaffold was compared to known effective agents against retinoblastoma. Namely, the dose response of the drug ouabain was tested with the human retinoblastoma cell lines Y79 and RB355, and its potency was compared to vincristine, etoposide, carboplatin, cisplatin, nutlin-3 and calcitriol. […] The activity of vincristine toward Y79 cells reached a plateau at 50% inhibition, which prevented the IC50 for this compound from being calculated.
# RB355 cells = test: Cytotoxicity assay for dose response in 384-well plates (Alamar Blue), RB355; type: cell-based, human
# Experimental: as §1
# To explore the structure activity relationship (SAR) within this chemical class a collection of 35 cardenolides and derivatives was constituted. The dose response for each compound toward the ocular cancer cell lines Y79, RB355, WERI-Rb-1 and C918 was then assessed.
# Compared potency of the cardenolide ouabain with known agents in cell models of retinoblastoma. The potency of a representative of the cardenolide scaffold was compared to known effective agents against retinoblastoma. […]
# Y79 cells [2] = test: Apoptosis assay, immunofluorescence detection of activated Caspase-3; type: cell-based, human; settings: 0.5 μM, 72 h, 1% DMSO
# Experimental: Apoptosis assay. Y79 cells seeded in culture medium in a 24-well plate were treated with either vincristine, etoposide, or ouabain at various concentrations in 1% DMSO (v/v) or with 1% DMSO (v/v) alone as a carrier control for 48 h or 72 h. After a wash in PBS, cells were fixed in solution in […] in PBS for 10 minutes. After a wash in PBS, cells for each condition were dried on a glass slide and washed once with water.
# The immunofluorescence detection of cleaved Caspase-3 was performed at the Memorial Sloan-Kettering Cancer Center Molecular Cytology Core Facility using a Discovery XT processor (Ventana Medical Systems, Tucson, Ariz.). A rabbit polyclonal Cleaved Caspase 3 (Asp 175) antibody (#9661 L, Cell Signaling, Danvers, Mass.) was used at a concentration of 0.1 μg/ml. […] Automated fluorescence imaging of the green channel (activated Caspase-3) and blue channel (nuclei) was performed using an IN Cell Analyzer 1000 (GE Healthcare).
# Compared effect of ouabain and clinical agents on apoptosis of Y79 cells. […] The drug concentrations used in this experiment were previously determined according to a pilot study where treated Y79 cells were live-stained with the dye Yo-Pro, which stains apoptic cells (Idziorek et al., J. Immunol. Methods 1995, 185, 249-258). […] Baseline Caspase-3 activation was evaluated with control Y79 cells treated with 1% DMSO (v/v) (FIG. 6A).
# [3] = Body weight and signs of toxicity in the xenograft study; type: in vivo, mouse; settings: throughout the treatment period
# Experimental: In vivo studies. Subcutaneous xenograft experiments were performed at the Memorial Sloan-Kettering Cancer Center Antitumor Assessment Core Facility. Y79LUC cells (10E6) embedded in matrigel (BD Biosciences, San Jose, Calif.) were injected subcutaneously in the right flank of 8-weeks old ICR/SCID male mice. Treatment started when the tumors reached approximately 250 mm^3. The mice were randomized into three groups and two mice per group were treated with either 10% DMSO (v/v) (control group), 1.5 mg/kg ouabain or 15 mg/kg ouabain. Treatment was performed by continuous subcutaneous infusion using osmotic minipumps (#1007D, Alzet, Cupertino, Calif.). Tumor size was measured externally two times a week with a caliper. Body weight of each mouse was monitored as well as other signs of toxicity throughout the treatment period. Bioluminescent imaging of the tumors was performed once a week and prior to sacrifice as follows: mice were anesthetized by isofluorane inhalation and injected with D-luciferin at 50 mg/Kg (Xenogen) intraperitoneally; photonic emission was measured with the In Vivo Imaging System (IVIS 200, Xenogen) with a collection time of 5 seconds.
# Assessment of the in vivo efficacy of ouabain in a xenograft model of retinoblastoma. The therapeutic effect of the drug ouabain in a mouse xenograft model of retinoblastoma was also investigated. […]
# Y79 cells [4] = test: Pilot study, live staining of treated cells with the dye Yo-Pro; type: cell-based, human; settings: concentrations higher than 0.5 μM
# Experimental: Compared effect of ouabain and clinical agents on apoptosis of Y79 cells. To determine whether the anti-proliferative effects of the drug ouabain was mediated by induction of apoptosis, immunostaining of activated Caspase-3 in Y79 cells treated with cardenolides or known agents for retinoblastoma for 72 h (green channel) was performed; treated cells were also stained with Hoechst to image the nuclei (blue channel) (FIG. 6). The drug concentrations used in this experiment were previously determined according to a pilot study where treated Y79 cells were live-stained with the dye Yo-Pro, which stains apoptic cells (Idziorek et al., J. Immunol. Methods 1995, 185, 249-258). Based on this study, 72 h was identified as the optimum incubation time and drug concentrations were selected that maximized the number of apoptotic cells (data not shown). Baseline Caspase-3 activation was evaluated with control Y79 cells treated with 1% DMSO (v/v) (FIG. 6A).
SMILES,activity toward Y79 cells below 100 μM (Y79 cells [1]),activity toward RB355 cells below 100 μM (RB355 cells),apoptosis (activated Caspase-3) compared to baseline (Y79 cells [2]),toxicity ([3]; 15 mg/kg),average body weight of treated versus control animals ([3]; 1.5 and 15 mg/kg),effect on Y79 cells in the Yo-Pro pilot study (Y79 cells [4])
"N.N.O=C([O-])C1(C(=O)[O-])CCC1.[Pt+2] [Carboplatin, carboplatin]",did not demonstrate any significant activity,neither caboplatin or calcitriol had any significant activity,,,,
N.N.[Cl][Pt][Cl] [cisplatin],did not demonstrate any significant activity,,,,,
C=C1/C(=C\C=C2/CCC[C@]3(C)[C@@H]([C@H](C)CCCC(C)(C)O)CC[C@@H]23)C[C@@H](O)C[C@@H]1O [calcitriol],did not demonstrate any significant activity,neither caboplatin or calcitriol had any significant activity,,,,
C[C@@H]1O[C@@H](O[C@H]2C[C@@H](O)[C@]3(CO)[C@H]4[C@H](O)C[C@]5(C)[C@@H](C6=CC(=O)OC6)CC[C@]5(O)[C@@H]4CC[C@]3(O)C2)[C@H](O)[C@H](O)[C@H]1O [ouabain],,,still induced significant apoptosis,did not induce any significant toxicity; also recorded: no signs of toxicity were observed,did not differ significantly,erradicated Y79 cells
